Several values for one entry are separate records, joined by “and”; a condition that tells them apart may be missing. Equal values may be shown once. Read-outs that look alike come from different tables or passages of the source.
Tests used:
Test in all cases: cell-based
hNav1.3 = hNav1.3 (Homo sapiens, UniProt Q9NY46); details: IonWorks Quattro; read-out: IC50 Nav1.3
hNav1.7 [1] = target: T1, hNav1.7 (Homo sapiens, UniProt Q15858); details: IonWorks Quattro; read-out: IC50 Nav1.7
hNav1.5 [2] = target: T2, hNav1.5 (Homo sapiens, UniProt Q14524); details: for IC50: PatchXpress, * = at high concentrations compound would wash off slowly or not at all, read-out: PX hNav1.5 Tonic IC50
hNav1.5 [3] = target: T2, hNav1.5; details: IonWorks Quattro; read-out: IC50 Nav1.5
hNav1.7 [4] = target: T1, hNav1.7; assay type: cell-based; details: PatchXpress; * = at high concentrations compound would wash off slowly or not at all; read-out: PX hNav1.7 Tonic IC50
hNav1.4 [5] = target: T3, hNav1.4 (Homo sapiens, UniProt P35499); details: for IC50: IonWorks Quattro, read-out: IC50 Nav1.4; for Nav1.4/Nav1.7: ratio of IonWorks Quattro IC50 values
hNav1.4 [6] = target: T3, hNav1.4; details: for IC50: PatchXpress, * = at high concentrations compound would wash off slowly or not at all, read-out: PX hNav1.4 Tonic IC50; for Nav1.4/Nav1.7: ratio of PX IC50 values

T3 sequence (P35499 whole entry): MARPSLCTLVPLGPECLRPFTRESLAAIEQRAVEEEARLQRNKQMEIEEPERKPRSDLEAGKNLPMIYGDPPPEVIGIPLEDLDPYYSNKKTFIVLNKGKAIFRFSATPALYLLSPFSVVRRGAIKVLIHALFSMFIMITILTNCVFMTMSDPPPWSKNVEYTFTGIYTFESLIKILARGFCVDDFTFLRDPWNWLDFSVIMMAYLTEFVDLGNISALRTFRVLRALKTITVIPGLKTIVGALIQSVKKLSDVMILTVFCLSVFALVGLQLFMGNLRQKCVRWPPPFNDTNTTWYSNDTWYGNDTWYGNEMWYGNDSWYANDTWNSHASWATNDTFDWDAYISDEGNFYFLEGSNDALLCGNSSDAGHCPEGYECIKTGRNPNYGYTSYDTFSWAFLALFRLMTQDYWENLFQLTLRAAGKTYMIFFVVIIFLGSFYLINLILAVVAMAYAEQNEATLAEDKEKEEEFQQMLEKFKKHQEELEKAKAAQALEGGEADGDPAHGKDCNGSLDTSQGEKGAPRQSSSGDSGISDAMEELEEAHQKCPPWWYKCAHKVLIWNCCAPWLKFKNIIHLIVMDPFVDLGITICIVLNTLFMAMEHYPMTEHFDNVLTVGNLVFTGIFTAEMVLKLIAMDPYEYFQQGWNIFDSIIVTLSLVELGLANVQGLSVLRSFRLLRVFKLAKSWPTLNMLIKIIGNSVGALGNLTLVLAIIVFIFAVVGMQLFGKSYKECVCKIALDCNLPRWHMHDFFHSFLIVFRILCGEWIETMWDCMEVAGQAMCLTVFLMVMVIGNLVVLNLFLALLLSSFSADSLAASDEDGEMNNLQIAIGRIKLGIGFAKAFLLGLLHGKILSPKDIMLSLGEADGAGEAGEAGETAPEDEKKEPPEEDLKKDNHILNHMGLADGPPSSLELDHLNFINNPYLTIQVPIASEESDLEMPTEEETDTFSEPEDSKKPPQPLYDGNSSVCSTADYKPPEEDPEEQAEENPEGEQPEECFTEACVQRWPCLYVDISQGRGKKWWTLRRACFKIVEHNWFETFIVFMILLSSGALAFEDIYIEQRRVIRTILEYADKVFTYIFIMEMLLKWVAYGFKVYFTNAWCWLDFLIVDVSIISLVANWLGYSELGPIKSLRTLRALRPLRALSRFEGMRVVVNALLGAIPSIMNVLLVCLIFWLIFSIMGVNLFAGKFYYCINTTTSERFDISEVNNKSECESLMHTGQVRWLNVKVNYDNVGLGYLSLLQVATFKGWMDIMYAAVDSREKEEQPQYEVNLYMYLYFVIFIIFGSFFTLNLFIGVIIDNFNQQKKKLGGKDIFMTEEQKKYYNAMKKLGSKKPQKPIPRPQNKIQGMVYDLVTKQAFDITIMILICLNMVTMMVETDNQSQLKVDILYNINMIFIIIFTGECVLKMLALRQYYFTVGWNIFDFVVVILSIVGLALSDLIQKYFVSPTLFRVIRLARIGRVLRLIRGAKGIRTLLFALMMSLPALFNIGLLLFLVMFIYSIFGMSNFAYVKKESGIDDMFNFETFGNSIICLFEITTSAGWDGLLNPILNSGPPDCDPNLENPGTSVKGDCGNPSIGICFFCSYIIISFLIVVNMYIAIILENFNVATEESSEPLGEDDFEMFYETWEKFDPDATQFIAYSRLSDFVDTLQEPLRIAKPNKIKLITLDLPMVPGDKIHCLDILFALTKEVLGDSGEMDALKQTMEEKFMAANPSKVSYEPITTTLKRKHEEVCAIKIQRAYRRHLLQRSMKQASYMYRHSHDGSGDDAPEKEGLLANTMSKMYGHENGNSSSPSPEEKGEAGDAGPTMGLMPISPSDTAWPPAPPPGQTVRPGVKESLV
Chain of hNav1.3 (Q9NY46 whole entry): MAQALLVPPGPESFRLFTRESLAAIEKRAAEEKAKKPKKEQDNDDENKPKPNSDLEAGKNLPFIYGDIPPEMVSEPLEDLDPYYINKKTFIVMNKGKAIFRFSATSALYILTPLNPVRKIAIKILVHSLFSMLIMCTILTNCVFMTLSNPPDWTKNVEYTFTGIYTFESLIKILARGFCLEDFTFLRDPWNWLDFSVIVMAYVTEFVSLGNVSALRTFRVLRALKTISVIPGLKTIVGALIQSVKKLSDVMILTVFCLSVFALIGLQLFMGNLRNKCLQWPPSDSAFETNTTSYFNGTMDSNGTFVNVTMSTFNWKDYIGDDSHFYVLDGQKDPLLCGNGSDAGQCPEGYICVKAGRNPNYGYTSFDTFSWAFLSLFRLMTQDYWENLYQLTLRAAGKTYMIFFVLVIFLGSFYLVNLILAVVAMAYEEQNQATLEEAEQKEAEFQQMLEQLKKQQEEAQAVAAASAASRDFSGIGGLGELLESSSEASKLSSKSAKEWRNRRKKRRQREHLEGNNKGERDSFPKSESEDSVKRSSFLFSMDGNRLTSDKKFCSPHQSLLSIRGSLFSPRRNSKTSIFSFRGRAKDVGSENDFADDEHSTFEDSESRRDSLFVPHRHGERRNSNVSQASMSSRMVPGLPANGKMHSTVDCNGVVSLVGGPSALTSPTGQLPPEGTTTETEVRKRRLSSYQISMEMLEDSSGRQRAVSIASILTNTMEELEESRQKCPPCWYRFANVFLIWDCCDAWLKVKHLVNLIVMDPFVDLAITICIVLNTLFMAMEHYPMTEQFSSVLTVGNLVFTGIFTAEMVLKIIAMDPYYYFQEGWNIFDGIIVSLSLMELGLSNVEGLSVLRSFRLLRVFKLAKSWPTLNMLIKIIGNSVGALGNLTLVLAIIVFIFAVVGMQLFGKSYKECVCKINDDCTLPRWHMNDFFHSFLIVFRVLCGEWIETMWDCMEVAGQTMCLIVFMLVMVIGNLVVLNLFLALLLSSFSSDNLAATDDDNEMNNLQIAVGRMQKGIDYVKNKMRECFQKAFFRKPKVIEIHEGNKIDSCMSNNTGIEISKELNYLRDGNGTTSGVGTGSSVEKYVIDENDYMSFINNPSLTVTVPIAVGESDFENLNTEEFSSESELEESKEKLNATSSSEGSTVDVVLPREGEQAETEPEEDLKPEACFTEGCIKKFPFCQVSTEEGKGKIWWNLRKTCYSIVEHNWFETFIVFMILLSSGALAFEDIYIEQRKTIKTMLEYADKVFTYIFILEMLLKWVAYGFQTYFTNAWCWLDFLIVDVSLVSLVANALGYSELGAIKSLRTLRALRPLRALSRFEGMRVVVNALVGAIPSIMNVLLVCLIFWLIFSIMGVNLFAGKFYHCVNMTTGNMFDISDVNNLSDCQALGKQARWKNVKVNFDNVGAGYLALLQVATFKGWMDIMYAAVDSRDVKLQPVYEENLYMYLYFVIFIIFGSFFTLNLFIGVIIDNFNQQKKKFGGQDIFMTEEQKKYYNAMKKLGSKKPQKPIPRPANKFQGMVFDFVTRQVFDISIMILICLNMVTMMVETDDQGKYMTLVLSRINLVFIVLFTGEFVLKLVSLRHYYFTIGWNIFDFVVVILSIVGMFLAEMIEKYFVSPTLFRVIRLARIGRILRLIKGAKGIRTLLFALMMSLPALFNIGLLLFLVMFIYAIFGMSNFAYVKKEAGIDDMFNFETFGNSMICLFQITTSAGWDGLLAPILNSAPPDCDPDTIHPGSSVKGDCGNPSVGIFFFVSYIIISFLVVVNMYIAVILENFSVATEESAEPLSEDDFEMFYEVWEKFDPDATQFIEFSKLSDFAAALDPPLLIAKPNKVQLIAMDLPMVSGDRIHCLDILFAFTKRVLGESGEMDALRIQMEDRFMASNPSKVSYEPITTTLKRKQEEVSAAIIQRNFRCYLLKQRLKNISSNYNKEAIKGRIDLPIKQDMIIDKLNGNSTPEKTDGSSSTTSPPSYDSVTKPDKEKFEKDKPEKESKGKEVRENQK

Row | SMILES | IC50 (hNav1.3) | IC50 (hNav1.7 [1]) | IC50 (hNav1.5 [2]) | IC50 (hNav1.5 [3]) | IC50 (hNav1.7 [4]) | IC50 (hNav1.4 [5]) | Nav1.4/Nav1.7 (hNav1.4 [5]) | Nav1.5/Nav1.7 (hNav1.5 [2]; ratio of PX IC50 values) | IC50 (hNav1.4 [6]) | Nav1.4/Nav1.7 (hNav1.4 [6])
1 | CC[C@H](C)[C@H](NC(=O)[C@@H](NC(=O)[C@H](CCCCN)NC(=O)[C@H](CCCNC(=N)N)NC(=O)[C@@H]1CSSC[C@@H]2NC(=O)[C@H](C)NC(=O)[C@H](CCCNC(=N)N)NC(=O)[C@H](CCCCN)NC(=O)[C@H](CO)NC(=O)[C@H](CC(=O)O)NC(=O)[C@@H]3CSSC[C@H](NC(=O)[C@H](CCC(=O)O)NC(=O)[C@H](CC(C)C)NC(=O)CNC(=O)[C@H](CCC(=O)O)NC(=O)[C@H](CSSC[C@H](NC(=O)[C@@H](N)Cc4ccc(O)cc4)C(=O)N[C@@H](CCC(N)=O)C(=O)N[C@@H](CCCCN)C(=O)N[C@@H](Cc4c[nH]c5ccccc45)C(=O)N[C@@H](CCSC)C(=O)N[C@@H](Cc4c[nH]c5ccccc45)C(=O)N[C@@H]([C@@H](C)O)C(=O)N3)NC2=O)C(=O)N[C@@H](CCCCN)C(=O)N[C@@H](CC(C)C)C(=O)N[C@@H](Cc2c[nH]c3ccccc23)C(=O)N1)[C@@H](C)CC)C(N)=O [compound 63] | > 5000 nM | 360 nM | 9330 nM | 9800 nM | 7 nM | > 5000 nM | 14 |  |  | 
2 | CC[C@H](C)[C@H](NC(=O)[C@@H](NC(=O)[C@H](CCCCN)NC(=O)[C@H](CCCNC(=N)N)NC(=O)[C@@H]1CSSC[C@@H]2NC(=O)[C@H](C)NC(=O)[C@H](CCCNC(=N)N)NC(=O)[C@H](CCCCN)NC(=O)[C@H](CO)NC(=O)[C@H](CC(=O)O)NC(=O)[C@@H]3CSSC[C@H](NC(=O)[C@H](CC(=O)O)NC(=O)[C@H](CC(C)C)NC(=O)CNC(=O)[C@H](CCC(=O)O)NC(=O)[C@H](CSSC[C@H](NC(=O)[C@@H](N)Cc4ccc(O)cc4)C(=O)N[C@@H](CCC(N)=O)C(=O)N[C@@H](CCCCN)C(=O)N[C@@H](Cc4c[nH]c5ccccc45)C(=O)N[C@@H](CCSC)C(=O)N[C@@H](Cc4c[nH]c5ccccc45)C(=O)N[C@@H]([C@@H](C)O)C(=O)N3)NC2=O)C(=O)N[C@@H](CCCCN)C(=O)N[C@@H](CC(C)C)C(=O)N[C@@H](Cc2c[nH]c3ccccc23)C(=O)N1)[C@@H](C)CC)C(N)=O [compound 115] | > 5000 nM | 90 nM | 3200 nM | 11100 nM | 749 nM | > 5000 nM | 53 | 4 | 7600 nM | 10
3 | CC[C@H](C)[C@H](NC(=O)[C@@H](NC(=O)[C@H](CCCCN)NC(=O)[C@H](CCCNC(=N)N)NC(=O)[C@@H]1CSSC[C@@H]2NC(=O)[C@H](C)NC(=O)[C@H](CCCNC(=N)N)NC(=O)[C@H](CCCCN)NC(=O)[C@H](CO)NC(=O)[C@H](CC(=O)O)NC(=O)[C@@H]3CSSC[C@H](NC(=O)CNC(=O)[C@H](CC(C)C)NC(=O)CNC(=O)[C@H](CCC(=O)O)NC(=O)[C@H](CSSC[C@H](NC(=O)[C@@H](N)Cc4ccc(O)cc4)C(=O)N[C@@H](CCC(N)=O)C(=O)N[C@@H](CCCCN)C(=O)N[C@@H](Cc4c[nH]c5ccccc45)C(=O)N[C@@H](CCSC)C(=O)N[C@@H](Cc4c[nH]c5ccccc45)C(=O)N[C@@H]([C@@H](C)O)C(=O)N3)NC2=O)C(=O)N[C@@H](CCCCN)C(=O)N[C@@H](CC(C)C)C(=O)N[C@@H](Cc2c[nH]c3ccccc23)C(=O)N1)[C@@H](C)CC)C(N)=O [compound 121] | 980 nM | 60 nM | 14100 nM | 9800 nM | 7.8 nM | 1900 nM | 29 |  | 197 nM | 25
4 | CC[C@H](C)[C@H](NC(=O)[C@@H](NC(=O)[C@H](CCCCN)NC(=O)[C@H](CCCNC(=N)N)NC(=O)[C@@H]1CSSC[C@@H]2NC(=O)[C@H](C)NC(=O)[C@H](CCCNC(=N)N)NC(=O)[C@H](CCCCN)NC(=O)[C@H](CO)NC(=O)[C@H](CC(=O)O)NC(=O)[C@@H]3CSSC[C@H](NC(=O)[C@H](Cc4ccc(O)cc4)NC(=O)[C@H](CC(C)C)NC(=O)CNC(=O)[C@H](CCC(=O)O)NC(=O)[C@H](CSSC[C@H](NC(=O)[C@@H](N)Cc4ccc(O)cc4)C(=O)N[C@@H](CCC(N)=O)C(=O)N[C@@H](CCCCN)C(=O)N[C@@H](Cc4c[nH]c5ccccc45)C(=O)N[C@@H](CCSC)C(=O)N[C@@H](Cc4c[nH]c5ccccc45)C(=O)N[C@@H]([C@@H](C)O)C(=O)N3)NC2=O)C(=O)N[C@@H](CCCCN)C(=O)N[C@@H](CC(C)C)C(=O)N[C@@H](Cc2c[nH]c3ccccc23)C(=O)N1)[C@@H](C)CC)C(N)=O [compound 124] | > 5000 nM | 90 nM | > 10000 nM | 10800 nM | 5.9 nM | 4000 nM | 43 |  | 1570 nM | 
5 | CC[C@H](C)[C@H](NC(=O)[C@@H](NC(=O)[C@H](CCCCN)NC(=O)[C@H](CCCNC(=N)N)NC(=O)[C@@H]1CSSC[C@@H]2NC(=O)[C@H](C)NC(=O)[C@H](CCCNC(=N)N)NC(=O)[C@H](CCCCN)NC(=O)[C@H](CO)NC(=O)[C@H](CC(=O)O)NC(=O)[C@@H]3CSSC[C@H](NC(=O)[C@H](CCC(=O)O)NC(=O)[C@H](CC(C)C)NC(=O)CNC(=O)[C@H](CCC(=O)O)NC(=O)[C@H](CSSC[C@H](NC(=O)[C@@H](N)Cc4ccc(O)cc4)C(=O)N[C@@H](CCC(N)=O)C(=O)N[C@@H](CCCCN)C(=O)N[C@@H](Cc4c[nH]c5ccccc45)C(=O)N[C@@H](CCSC)C(=O)N[C@@H](Cc4c[nH]c5ccccc45)C(=O)N[C@@H]([C@@H](C)O)C(=O)N3)NC2=O)C(=O)N[C@@H](CCCCN)C(=O)N[C@@H](CC(C)C)C(=O)N[C@@H](Cc2c[nH]c3ccccc23)C(=O)N1)C(C)C)C(N)=O [compound 133] | 4850 nM | 80 nM | 5500 nM | 12000 nM | 4.1 nM | 4000 nM | 51 |  | 1310 nM | 320
6 | CC[C@H](C)[C@H](NC(=O)[C@H](CCCNC(N)=O)NC(=O)[C@H](CCCCN)NC(=O)[C@H](CCCNC(=N)N)NC(=O)[C@@H]1CSSC[C@@H]2NC(=O)[C@H](C)NC(=O)[C@H](CCCNC(=N)N)NC(=O)[C@H](CCCCN)NC(=O)[C@H](CO)NC(=O)[C@H](CC(=O)O)NC(=O)[C@@H]3CSSC[C@H](NC(=O)[C@H](CCC(=O)O)NC(=O)[C@H](CC(C)C)NC(=O)CNC(=O)[C@H](CCC(=O)O)NC(=O)[C@H](CSSC[C@H](NC(=O)[C@@H](N)Cc4ccc(O)cc4)C(=O)N[C@@H](CCC(N)=O)C(=O)N[C@@H](CCCCN)C(=O)N[C@@H](Cc4c[nH]c5ccccc45)C(=O)N[C@@H](CCSC)C(=O)N[C@@H](Cc4c[nH]c5ccccc45)C(=O)N[C@@H]([C@@H](C)O)C(=O)N3)NC2=O)C(=O)N[C@@H](CCCCN)C(=O)N[C@@H](CC(C)C)C(=O)N[C@@H](Cc2c[nH]c3ccccc23)C(=O)N1)C(N)=O [compound 135] | > 5000 nM | 110 nM | > 10000 nM | 12000 nM | 5.6 nM | > 5000 nM | 46 |  | 6020 nM | 
7 | CCCC[C@@H]1NC(=O)[C@H](Cc2c[nH]c3ccccc23)NC(=O)[C@H](CCCCN)NC(=O)[C@H](CCC(N)=O)NC(=O)[C@@H](NC(=O)[C@@H](N)Cc2ccc(O)cc2)CSSC[C@@H]2NC(=O)[C@@H]3CSSC[C@@H](C(=O)N[C@@H](CCCNC(=N)N)C(=O)N[C@@H](CCCCN)C(=O)N[C@H](C(=O)N[C@H](C(N)=O)[C@@H](C)CC)[C@@H](C)CC)NC(=O)[C@H](Cc4c[nH]c5ccccc45)NC(=O)[C@H](CC(C)C)NC(=O)[C@H](CCCCN)NC(=O)[C@H](CSSC[C@H](NC(=O)[C@H]([C@@H](C)O)NC(=O)[C@H](Cc4c[nH]c5ccccc45)NC1=O)C(=O)N[C@@H](CC(=O)O)C(=O)N[C@@H](CO)C(=O)N[C@@H](CCCCN)C(=O)N[C@@H](CCCNC(=N)N)C(=O)N[C@@H](C)C(=O)N3)NC(=O)[C@H](CCCNC(=N)N)NC(=O)[C@H](CC(C)C)NC(=O)CNC(=O)[C@H](CCC(=O)O)NC2=O [compound 272] | > 5000 nM | > 5000 nM |  | > 5000 nM | 0.586 nM | > 5000 nM |  |  |  | 
8 | CC[C@H](C)[C@H](NC(=O)[C@@H](NC(=O)[C@H](CCCCN)NC(=O)[C@H](CCCNC(=N)N)NC(=O)[C@@H]1CSSC[C@@H]2NC(=O)[C@H](C)NC(=O)[C@H](CCCNC(=N)N)NC(=O)[C@H](CCCCN)NC(=O)[C@H](CO)NC(=O)[C@H](CC(=O)O)NC(=O)[C@@H]3CSSC[C@H](NC(=O)[C@H](CCCNC(=N)N)NC(=O)[C@H](CC(C)C)NC(=O)CNC(=O)[C@H](CCC(=O)O)NC(=O)[C@H](CSSC[C@H](NC(=O)[C@@H](N)CCC(=O)O)C(=O)N[C@@H](CCC(N)=O)C(=O)N[C@@H](CCCCN)C(=O)N[C@@H](Cc4c[nH]c5ccccc45)C(=O)N[C@@H](CCSC)C(=O)N[C@@H](Cc4cccc5ccccc45)C(=O)N[C@@H]([C@@H](C)O)C(=O)N3)NC2=O)C(=O)N[C@@H](CCCCN)C(=O)N[C@@H](CC(C)C)C(=O)N[C@@H](Cc2c[nH]c3ccccc23)C(=O)N1)[C@@H](C)CC)C(N)=O [compound 281] | 400 nM and 500 nM | 32 nM and 47 nM |  | > 5000 nM |  | 700 nM and 500 nM |  |  |  | 

Source: patent publication US9636418B2 (priority 2013, dated 2017)
